In PubChem BioAssay AID1745844 (Carcinogenic Potency Database (CPDB), 2022) one finds TD50 and carcinogen call data, which are given here for twelve molecules.

As usually defined, the TD50 is the 50% point of the dose-response relation for the toxic effect studied.

Calls of active or inactive are those of the source. The rule behind the calls is not given here.

The data set has as its system rodent lifetime carcinogenesis bioassay, tumor incidence TD50. The data set is described as follows: chronic cancer bioassays in animals – CPDB, compiled studies (AID 1745844).
Setting [1] is: mouse, strain B6AKF1, females, oral dosing, site: any site (literature study), lesion: several types, types named in the paper, dosed 76 weeks, study length 76 weeks.
Setting [2] is: mouse, strain B6AKF1, females, oral dosing, site: liver, lesion: hepatoma, dosed 76 weeks, study length 76 weeks.
Where [3] appears, read: mouse, strain B6AKF1, females, oral dosing, site: lung, lesion: adenoma, dosed 76 weeks, study length 76 weeks.
Where [4] appears, read: mouse, strain B6AKF1, males, oral dosing, site: any site (literature study), lesion: several types, types named in the paper, dosed 76 weeks, study length 76 weeks.
Where [5] appears, read: mouse, strain B6AKF1, males, oral dosing, site: liver, lesion: hepatoma, dosed 76 weeks, study length 76 weeks.
The mark [6] stands for this setting: mouse, strain B6AKF1, males, oral dosing, site: lung, lesion: adenoma, dosed 76 weeks, study length 76 weeks.
Setting [7] is: mouse, strain B6C3F1, females, oral dosing, site: liver, lesion: hepatoma, dosed 76 weeks, study length 76 weeks.
Where [8] appears, read: mouse, strain B6C3F1, females, oral dosing, site: lung, lesion: several types, types named in the paper, dosed 76 weeks, study length 76 weeks.
Where [9] appears, read: mouse, strain B6C3F1, males, oral dosing, site: any site (literature study), lesion: several types, types named in the paper, dosed 76 weeks, study length 76 weeks.
The mark [10] stands for this setting: mouse, strain B6C3F1, males, oral dosing, site: liver, lesion: hepatoma, dosed 76 weeks, study length 76 weeks.
Setting [11] is: mouse, strain B6C3F1, males, oral dosing, site: lung, lesion: adenoma, dosed 76 weeks, study length 76 weeks.

Consider `COc1ccc(N)c(C)c1`, for which the TD50 reads like this: (mouse, strain B6C3F1, females, by gavage, site: any site (literature study), lesion: several types, types named in the paper, dosed 53 weeks, study length 93 weeks) 69.2 mg/kg/day; (mouse, strain B6C3F1, females, by gavage, site: liver, lesion: hepatocellular adenoma + hepatocellular carcinoma + neoplastic nodule, dosed 53 weeks, study length 93 weeks) 206 mg/kg/day; (mouse, strain B6C3F1, females, by gavage, site: liver, lesion: hepatocellular adenoma + hepatocellular carcinoma, dosed 53 weeks, study length 93 weeks) 206 mg/kg/day (inactive); (mouse, strain B6C3F1, females, by gavage, site: lung, lesion: alveolar/bronchiolar adenoma + alveolar/bronchiolar carcinoma, dosed 53 weeks, study length 93 weeks) 250 mg/kg/day; (mouse, strain B6C3F1, males, by gavage, site: any site (literature study), lesion: several types, types named in the paper, dosed 53 weeks, study length 93 weeks) 72.2 mg/kg/day; (rat, strain Fischer 344, females, by gavage, site: any site (literature study), lesion: several types, types named in the paper, dosed 77 weeks, study length 109 weeks) 51.5 mg/kg/day. In addition, the TD50 was 1100 mg/kg/day (rat, strain Fischer 344, females, by gavage, site: liver, lesion: hepatocellular adenoma + hepatocellular carcinoma + neoplastic nodule, dosed 77 weeks, study length 109 weeks); 52.7 mg/kg/day (rat, strain Fischer 344, females, by gavage, site: mammary gland, lesion: fibroadenoma, dosed 77 weeks, study length 109 weeks); 769 mg/kg/day (rat, strain Fischer 344, females, by gavage, site: urinary bladder, lesion: transitional-cell carcinoma, dosed 77 weeks, study length 109 weeks); 368 mg/kg/day (rat, strain Fischer 344, males, by gavage, site: any site (literature study), lesion: several types, types named in the paper, dosed 77 weeks, study length 109 weeks); 506 mg/kg/day (rat, strain Fischer 344, males, by gavage, site: liver, lesion: hepatocellular adenoma + hepatocellular carcinoma + neoplastic nodule, dosed 77 weeks, study length 109 weeks); 470 mg/kg/day (rat, strain Fischer 344, males, by gavage, site: urinary bladder, lesion: transitional-cell carcinoma, dosed 77 weeks, study length 109 weeks).

For `CCc1nc(N)nc(N)c1-c1ccc(Cl)cc1`, the TD50 is 315 mg/kg/day (inactive) (mouse, strain B6C3F1, females, in feed, site: any site (literature study), lesion: several types, types named in the paper, dosed 78 weeks, study length 104 weeks); 405 mg/kg/day (mouse, strain B6C3F1, females, in feed, site: lung, lesion: alveolar/bronchiolar adenoma + alveolar/bronchiolar carcinoma, dosed 78 weeks, study length 104 weeks); 419 mg/kg/day (mouse, strain B6C3F1, males, in feed, site: any site (literature study), lesion: several types, types named in the paper, dosed 78 weeks, study length 104 weeks); 27.8 mg/kg/day (inactive) (rat, strain Fischer 344, females, in feed, site: any site (literature study), lesion: several types, types named in the paper, dosed 78 weeks, study length 104 weeks). Where the note is “rat, strain Fischer 344, males, in feed, site: any site (literature study), lesion: several types, types named in the paper, dosed 78 weeks, study length 104 weeks”, the carcinogen call was “negative (inactive)”.

`CC1=C(/C=C/C(C)=C/C=C/C(C)=C/C=C/C=C(C)/C=C/C=C(C)/C=C/C2=C(C)CCCC2(C)C)C(C)(C)CCC1`: the TD50 (mouse, strain Charles River CD1, females, in feed, site: liver, lesion: hepatocellular adenoma, dosed 105 weeks, study length 105 weeks) is 15900 mg/kg/day (inactive); the TD50 (mouse, strain Charles River CD1, females, in feed, site: lung, lesion: adenoma, dosed 105 weeks, study length 105 weeks) was 93600 mg/kg/day (inactive); the TD50 (mouse, strain Charles River CD1, males, in feed, site: liver, lesion: hepatocellular carcinoma, dosed 105 weeks, study length 105 weeks) was 49700 mg/kg/day (inactive); the TD50 (mouse, strain Charles River CD1, males, in feed, site: lung, lesion: adenocarcinoma, dosed 105 weeks, study length 105 weeks) was 26400 mg/kg/day (inactive); the TD50 (mouse, strain Charles River CD1, males, in feed, site: lung, lesion: adenoma, dosed 105 weeks, study length 105 weeks) was 71400 mg/kg/day (inactive). Further, the carcinogen call (mouse, strain Charles River CD1, females, in feed, site: liver, lesion: hepatocellular carcinoma, dosed 105 weeks, study length 105 weeks) was “negative (inactive)”; the carcinogen call (mouse, strain Charles River CD1, females, in feed, site: lung, lesion: adenocarcinoma, dosed 105 weeks, study length 105 weeks) was “negative (inactive)”; the carcinogen call (mouse, strain Charles River CD1, males, in feed, site: liver, lesion: hepatocellular adenoma, dosed 105 weeks, study length 105 weeks) was “negative (inactive)”.

`CCCCCCc1ccc(O)cc1O`: the carcinogen call is “negative (inactive)” (mouse, strain B6C3F1, females, by gavage, site: any site (literature study), lesion: several types, types named in the paper, dosed 102 weeks, study length 104 weeks) and “negative (inactive)” (rat, strain Fischer 344, females, by gavage, site: any site (literature study), lesion: several types, types named in the paper, dosed 103 weeks, study length 104 weeks). The TD50 (mouse, strain B6C3F1, males, by gavage, site: Harderian gland, lesion: adenoma, NOS + carcinoma, NOS, dosed 102 weeks, study length 104 weeks) amounted to 368 mg/kg/day; the TD50 (mouse, strain B6C3F1, males, by gavage, site: adrenal medulla, lesion: pheochromocytoma, dosed 102 weeks, study length 104 weeks) is 519 mg/kg/day; the TD50 (rat, strain Fischer 344, females, by gavage, site: liver, lesion: hepatocellular adenoma + hepatocellular carcinoma + neoplastic nodule, dosed 103 weeks, study length 104 weeks) is 128000 mg/kg/day; the TD50 (rat, strain Fischer 344, males, by gavage, site: any site (literature study), lesion: several types, types named in the paper, dosed 103 weeks, study length 104 weeks) is 615 mg/kg/day (inactive); the TD50 (rat, strain Fischer 344, males, by gavage, site: liver, lesion: hepatocellular adenoma + hepatocellular carcinoma + neoplastic nodule, dosed 103 weeks, study length 104 weeks) turned out to be 1530 mg/kg/day.

As to `O=NN1CCC(O)C1` (centres undefined), the TD50 runs as follows: (rat, strain Sprague-Dawley, both sexes, in drinking water, site: any site (literature study), lesion: malignant tumor, dosed 112 weeks, study length 112 weeks) 7.65 mg/kg/day; (rat, strain Sprague-Dawley, both sexes, in drinking water, site: liver, lesion: hepatocellular carcinoma, dosed 112 weeks, study length 112 weeks) 8.11 mg/kg/day.

For the molecule `CN(C)CCN(Cc1ccsc1)c1ccccn1`, the carcinogen call reads like this: (rat, strain Fischer 344, females, in drinking water, site: liver, lesion: several types, types named in the paper, dosed 80 weeks, study length 130 weeks) “negative (inactive)”; (rat, strain Fischer 344, males, in drinking water, site: thyroid follicle, lesion: several types, types named in the paper, dosed 80 weeks, study length 130 weeks) “negative (inactive)”. In addition, the TD50 is, setting by setting: (rat, strain Fischer 344, females, in drinking water, site: thyroid follicle, lesion: several types, types named in the paper, dosed 80 weeks, study length 130 weeks) 10700 mg/kg/day (inactive); (rat, strain Fischer 344, males, in drinking water, site: liver, lesion: several types, types named in the paper, dosed 80 weeks, study length 130 weeks) 96.8 mg/kg/day (inactive).

As for `ClC/C=C/CCl`, the TD50 (mouse, strain Ha/ICR, females, i.p., site: abdomen, lesion: sarcoma, dosed 76 weeks, study length 76 weeks) was 1.52 mg/kg/day.

Regarding `CC1=C(CC(=O)O)c2cc(F)ccc2/C1=C\c1ccc(S(C)(=O)=O)cc1`, the carcinogen call (rat, strain Fischer 344, males, in feed, site: colon, lesion: one or several types, types not named, dosed 53 weeks, study length 53 weeks) was “negative (inactive)”.

With `N[C@@H](CCC(=O)NNc1ccc(CO)cc1)C(=O)O`, the TD50 was 2720 mg/kg/day (mouse, strain Swiss albino, females, in drinking water, site: liver, lesion: angiosarcoma, dosed 121 weeks, study length 121 weeks); 3290 mg/kg/day (mouse, strain Swiss albino, females, in drinking water, site: lung, lesion: adenoma, dosed 121 weeks, study length 121 weeks); 2040 mg/kg/day (mouse, strain Swiss albino, males, in drinking water, site: liver, lesion: angiosarcoma, dosed 120 weeks, study length 120 weeks); 3310 mg/kg/day (inactive) (mouse, strain Swiss albino, males, in drinking water, site: liver, lesion: hepatoma, dosed 120 weeks, study length 120 weeks). The carcinogen call is “negative (inactive)” (mouse, strain Swiss albino, females, in drinking water, site: lung, lesion: several types, types named in the paper, dosed 121 weeks, study length 121 weeks) and “negative (inactive)” (mouse, strain Swiss albino, males, in drinking water, site: lung, lesion: several types, types named in the paper, dosed 120 weeks, study length 120 weeks).

As to `O=S(=O)(c1ccc(Cl)cc1)c1cc(Cl)c(Cl)cc1Cl`, the TD50 under setting [1] was 233 mg/kg/day (inactive); the TD50 under setting [2] was 233 mg/kg/day (inactive); the TD50 (mouse, strain B6C3F1, females, oral dosing, site: any site (literature study), lesion: several types, types named in the paper, dosed 76 weeks, study length 76 weeks) is 220 mg/kg/day (inactive); the TD50 under setting [9] is 35.6 mg/kg/day (inactive); the TD50 under setting [10] is 46.2 mg/kg/day (inactive); the TD50 under setting [11] was 205 mg/kg/day (inactive). For the same molecule, the carcinogen call was “negative (inactive)” under setting [3]; “negative (inactive)” under setting [4]; “negative (inactive)” under setting [5]; “negative (inactive)” under setting [6]; “negative (inactive)” under setting [7]; “negative (inactive)” under setting [8].

For `C=C(C)C(=O)Nc1ccc(Cl)c(Cl)c1`, the carcinogen call by setting is: under setting [1], “negative (inactive)”; under setting [2], “negative (inactive)”; under setting [3], “negative (inactive)”; under setting [6], “negative (inactive)”; (mouse, strain B6C3F1, females, oral dosing, site: any site (literature study), lesion: one or several types, types not named, dosed 76 weeks, study length 76 weeks) “negative (inactive)”; under setting [7], “negative (inactive)”. For the same molecule, the carcinogen call under setting [8] is “negative (inactive)”. For the same molecule, the TD50 runs as follows: under setting [4], 49.1 mg/kg/day (inactive); under setting [5], 27.1 mg/kg/day (inactive); under setting [9], 5.39 mg/kg/day (inactive); under setting [10], 15.2 mg/kg/day (inactive); under setting [11], 23.7 mg/kg/day (inactive).

As to `O=NN(CCO)CC(O)CO` (centres undefined), the TD50 by setting is: (hamster, strain Syrian Golden, females, by gavage, site: trachea, lesion: adenoma, dosed 50 weeks, study length 104 weeks) 52.7 mg/kg/day; (rat, strain Fischer 344, females, in drinking water, site: liver, lesion: hepatocellular carcinoma, dosed 75 weeks, study length 120 weeks) 11.5 mg/kg/day; (rat, strain Fischer 344, females, in drinking water, site: liver, lesion: neoplastic nodule, dosed 75 weeks, study length 120 weeks) 8.69 mg/kg/day; (rat, strain Fischer 344, females, in drinking water, site: liver, lesion: several types, types named in the paper, dosed 75 weeks, study length 120 weeks) 5.98 mg/kg/day.
